Assay results as given in US11453697B1, “Cyclic di-nucleotide compounds as sting agonists” (Merck Sharp & Dohme Corp., priority 2015, dated 2022).

Tests used:
full-length HAQ STING = full-length HAQ STING (Homo sapiens (Human), UniProt Q86WV6, G230A/H232R/R293Q/R71H); experiment: 3H-cGAMP filtration binding assay (HAQ STING); conditions: competition with tritiated cGAMP, HAQ STING membrane; read-out: EC50 (nM), 3H-cGAMP filtration binding assay for HAQ STING
How it was run: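 Competition binding of compounds against 8 nM [3H]cGAMP working stock on Hi-Five cell membranes overexpressing full-length HAQ STING; compound and membrane preincubated 60 min at RT before ligand addition. Bound radioactivity read by filtration and scintillation counting; percent activity normalized to controls, EC50 from 4-parameter fit.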

[1] = test system: IFN-β secretion in THP1 cells; experiment: IFN-β secretion in THP1 cell culture (5 h); format: cell-based, human; conditions: IFN-β secretion in THP1 cell culture, 5 h; compound at 30 μM; percent activation relative to 2′3′-cGAMP
How it was run: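 THP1 cells incubated with compound for 5 h at 37 °C, 5% CO2, and secreted IFN-β in supernatant quantified by AlphaLISA. Percent effect normalised to 30 uM cGAMP positive control and 0.3% DMSO. EC50 from 4-parameter fit.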

full-length HAQ STING, sequence (Q86WV6 other isoform, or with tags, fused parts or gaps, stated change not applied): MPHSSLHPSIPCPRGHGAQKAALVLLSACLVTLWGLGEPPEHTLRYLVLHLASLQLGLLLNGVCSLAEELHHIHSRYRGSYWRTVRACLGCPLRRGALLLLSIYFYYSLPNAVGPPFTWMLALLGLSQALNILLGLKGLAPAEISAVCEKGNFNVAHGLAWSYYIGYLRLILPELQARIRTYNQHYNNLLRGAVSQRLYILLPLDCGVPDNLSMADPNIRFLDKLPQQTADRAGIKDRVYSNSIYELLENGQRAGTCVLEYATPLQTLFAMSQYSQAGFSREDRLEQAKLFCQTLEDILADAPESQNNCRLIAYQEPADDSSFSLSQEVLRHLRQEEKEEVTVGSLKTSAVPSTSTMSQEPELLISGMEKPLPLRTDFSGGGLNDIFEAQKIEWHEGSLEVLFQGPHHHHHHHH

Row | EC50 (full-length HAQ STING) | SMILES | % Effect at 30 μM relative to 2′3′-cGAMP [1]
1 | 7.9 nM | Nc1ncnc2c1ccn2[C@@H]1O[C@@H]2COP(=O)(O)O[C@@H]3[C@H](O)[C@@H](COP(=O)(O)O[C@H]2[C@H]1O)O[C@H]3n1cnc2c(=O)[nH]cnc21 [Example 35, 9-[(5R,7R,8R,12aR,14R,15R,15aS,16R)-14-(4-amino-7H-pyrrolo[2,3-d]pyrimidin-7-yl)-2,10,15,16-tetrahydroxy-2,10-dioxidooctahydro-12H-5,8-methanofuro[3,2-l][1,3,6,9,11,2,10]pentaoxadiphosphacyclotetradecin-7-yl]-1,9-dihydro-6H-purin-6-one] | 51%
2 | 121 nM | Nc1nc2c(ncn2[C@@H]2O[C@@]34COC3[C@@H]2OP(=O)(O)OC[C@H]2O[C@@H](n3cnc5c(N)ncnc53)[C@@H](O)C2OP(=O)(O)OC4)c(=O)[nH]1 (stereo partly drawn) [Example 17, 2-amino-9-[(2aR,5S,6aS,7R,8R,9aR,12S,14R,14aS,15R)-8-(6-amino-9H-purin-9-yl)-5,7,12-trihydroxy-5,12-dioxidohexahydro-6aH-2a,14-(epoxymethano)furo[3,2-d]oxeto[2,3-k][1,3,7,9,2,8]tetraoxadiphosphacyclotridecin-15(2H,3H)-yl]-1,9-dihydro-6H-purin-6-one] | 81%
3 | 834 nM | Nc1nc2c(ncn2[C@@H]2O[C@@H]3COP(=O)(O)O[C@H]4[C@@H](O)[C@H](n5nnc6c(N)nccc65)O[C@@H]4COP(=O)(O)O[C@@H]2[C@@H]3O)c(=O)[nH]1 [Example 73, 2-amino-9-[(5R,7R,8R,12aR,14R,15R,15aS,16R)-14-(4-amino-1H-[1,2,3]triazolo[4,5-c]pyridin-1-yl)-2,10,15,16-tetrahydroxy-2,10-dioxidooctahydro-12H-5,8-methanofuro[3,2-l][1,3,6,9,11,2,10]pentaoxadiphosphacyclotetradecin-7-yl]-1,9-dihydro-6H-purin-6-one] | 5%
4 | 5.1 nM | Nc1nc2c(ncn2[C@@H]2O[C@@H]3COP(=O)(O)O[C@H]4[C@@H](O)[C@H](n5cnc6c(O)ncnc65)O[C@@H]4COP(=O)(O)O[C@@H]2[C@@H]3F)c(=O)[nH]1 [Example 300, 2-amino-9-[(5R,7R,8S,12aR,14R,15R,15aS,16R)-16-fluoro-2,10,15-trihydroxy-14-(6-hydroxy-9H-purin-9-yl)-2,10-dioxidooctahydro-12H-5,8-methanofuro[3,2-l] [1,3,6,9,11,2,10]pentaoxadiphosphacyclo-tetradecin-7-yl]-1,9-dihydro-6H-purin-6-one] | 86%
5 | 29.6 nM | Nc1nc2c(ncn2[C@@H]2O[C@@H]3COP(=O)(O)O[C@H]4[C@H](F)[C@H](n5cnc6c(=O)[nH]cnc65)O[C@@H]4COP(=O)(O)O[C@@H]2[C@@H]3O)c(=O)[nH]1 [Example 295, 2-amino-9-[(5R,7R,8R,12aR,14R,15S,15aR,16R)-15-fluoro-2,10,16-trihydroxy-2,10-dioxido-14-(6-oxo-1,6-dihydro-9H-purin-9-yl)octahydro-12H-5,8-methanofuro[3,2-l] [1,3,6,9,11,2,10]pentaoxadiphosphacyclo-tetradecin-7-yl]-1,9-dihydro-6H-purin-6-one] | 70%
6 | 55.3 nM | Nc1nc2c(ncn2[C@@H]2O[C@@H]3COP(=O)(O)O[C@H]4[C@@H](O)[C@H](n5nnc6c(N)ncnc65)O[C@@H]4COP(=O)(O)O[C@@H]2[C@@H]3O)c(=O)[nH]1 [Example 55, 2-amino-9-[(5R,7R,8R,12aR,14R,15R,15aS,16R)-14-(7-amino-3H-[1,2,3]triazolo[4,5-d]pyrimidin-3-yl)-2,10,15,16-tetrahydroxy-2,10-dioxidooctahydro-12H-5,8-methanofuro[3,2-l][1,3,6,9,11,2,10]pentaoxadiphosphacyclotetradecin-7-yl]-1,9-dihydro-6H-purin-6-one] | 83%
7 | 211 nM | Nc1nc2c(ncn2[C@@H]2O[C@@H]3COP(=O)(O)O[C@H]4C[C@H](n5cnc6c(=O)[nH]cnc65)O[C@@H]4COP(=O)(O)O[C@@H]2C3)c(=O)[nH]1 [Example 313, 2-amino-9-[(5S,7R,8R,12aR,14R,15aS)-2,10-dihydroxy-2,10-dioxido-14-(6-oxo-1,6-dihydro-9H-purin-9-yl)octahydro-12H-5,8-methanofuro[3,2-l] [1,3,6,9,11,2,10]pentaoxadiphosphacyclo-tetradecin-7-yl]-1,9-dihydro-6H-purin-6-one] | 117%
8 | 11.8 nM | Nc1ncc2ncn([C@@H]3O[C@@H]4COP(=O)(O)O[C@@H]5[C@H](O)[C@@H](COP(=O)(O)O[C@H]4[C@H]3O)O[C@H]5n3cnc4c(=O)[nH]c(N)nc43)c2n1 [Example 59, 2-amino-9-[(5R,7R,8R,12aR,14R,15R,15aS,16R)-14-(2-amino-9H-purin-9-yl)-2,10,15,16-tetrahydroxy-2,10-dioxidooctahydro-12H-5,8-methanofuro[3,2-l][1,3,6,9,11,2,10]pentaoxadiphosphacyclotetradecin-7-yl]-1,9-dihydro-6H-purin-6-one] | 76%
9 | 1.2 nM | Nc1nc2c(ncn2[C@@H]2S[C@@H]3COP(=O)(O)OC4C(O)[C@H](n5cnc6c(N)ncnc65)O[C@@H]4COP(=O)(O)OC2C3O)c(=O)[nH]1 (stereo in doubt) [Example 11, (5R,7R,8R,12aR,14R,15R,15aS,16S)-7-(2-amino-6-oxo-1,6-dihydro-9H-purin-9-yl)-14-(6-amino-9H-purin-9-yl)-15,16-dihydroxyoctahydro-12H-5,8-methanofuro[3,2-l][1,3,9,11,6,2,10] tetraoxathiadiphosphacyclotetradecine-2,10-diolate 2,10-dioxide] | 169%
10 | 6.3 nM | Nc1nc2c(ncn2[C@@H]2O[C@@H]3COP(=O)(S)O[C@H]4[C@H](F)[C@H](n5nnc6c(=O)[nH]cnc65)O[C@@H]4COP(=O)(S)O[C@@H]2C3)c(=O)[nH]1 (stereo partly drawn) [Example 320, 3-[(5S,7R,8R,12aR,14R,15S,15aR)-7-(2-amino-6-oxo-1,6-dihydro-9H-purin-9-yl)-15-fluoro-2,10-dioxido-2,10-disulfanyloctahydro-12H-5,8-methanofuro[3,2-l][1,3,6,9,11,2,10]pentaoxadiphosphacyclotetradecin-14-yl]-3,6-dihydro-7H-[1,2,3]triazolo[4,5-d]pyrimidin-7-one] | 115%
11 | 63.8 nM | Nc1ncnc2c1ncn2[C@@H]1O[C@@H]2COP(=O)(O)O[C@@H]3[C@H](O)[C@@H](COP(=O)(O)O[C@H]2[C@H]1O)O[C@H]3c1cnc2c(=O)[nH]cnn12 [Example 68, 7-[(5R,7S,8R,12aR,14R,15R,15aS,16R)-14-(6-amino-9H-purin-9-yl)-2,10,15,16-tetrahydroxy-2,10-dioxidooctahydro-12H-5,8-methanofuro [3,2-l][1,3,6,9,11,2,10]pentaoxadiphosphacyclotetradecin-7-yl]imidazo[2,1-f][1,2,4]triazin-4(3H)-one] | 72%
12 | 21.5 nM | NC[C@H]1[C@H]2OP(=O)(O)OC[C@H]3O[C@@H](n4cnc5c(N)ncnc54)[C@H](O)[C@@H]3OP(=O)(O)OC[C@H]1O[C@H]2n1cnc2c(=O)[nH]c(N)nc21 [Example 36, 2-amino-9-[(5S,7R,8R,12aR,14R,15R,15aS,16R)-16-(aminomethyl)-14-(6-amino-9H-purin-9-yl)-2,10,15-trihydroxy-2,10-dioxidooctahydro-12H-5,8-methanofuro[3,2-l][1,3,6,9,11,2,10]pentaoxadiphosphacyclotetradecin-7-yl]-1,9-dihydro-6H-purin-6-one] | 120%
13 | < 1 nM | Nc1nc2c(ncn2[C@@H]2O[C@@H]3COP(=O)(O)O[C@H]4[C@@H](F)[C@H](n5cnc6c(=O)[nH]cnc65)O[C@@H]4COP(=O)(O)O[C@@H]2[C@@H]3F)c(=O)[nH]1 [Example 314, 2-amino-9-[(5R,7R,8S,12aR,14R,15R,15aR,16R)-15,16-difluoro-2,10-dihydroxy-2,10-dioxido-14-(6-oxo-1,6-dihydro-9H-purin-9-yl)octahydro-12H-5,8-methanofuro [3,2-l][1,3,6,9,11,2,10]pentaoxadiphosphacyclotetradecin-7-yl]-1,9-dihydro-6H-purin-6-one] | 143%
14 | 2.6 nM | Nc1ncnc2c1ncn2[C@@H]1O[C@@H]2COP(=O)(O)O[C@H]3[C@@H](F)[C@H](n4cnc5c(=O)[nH]cnc54)O[C@@H]3COP(=O)(O)O[C@@H]1[C@@H]2O [Example 292, 9-[(5R,7R,8R,12aR,14R,15R,15aR,16R)-7-(6-amino-9H-purin-9-yl)-15-fluoro-2,10,16-trihydroxy-2,10-dioxidooctahydro-12H-5,8-methanofuro[3,2-l][1,3,6,9,11,2,10]pentaoxadiphosphacyclotetradecin-14-yl]-1,9-dihydro-6H-purin-6-one] | 114%
15 | < 1 nM | C#C[C@@]12COP(=O)(O)OC3C(O)[C@@H](COP(=O)(O)OC1C(O)[C@H](n1cnc4c(N)ncnc41)O2)O[C@H]3n1cnc2c(=O)[nH]c(N)nc21 (stereo in doubt) [Example 12, (5R,7R,8R,12aR,14R,15R,15aS,16R)-7-(2-amino-6-oxo-1,6-dihydro-9H-purin-9-yl)-14-(6-amino-9H-purin-9-yl)-12a-ethynyl-15,16-dihydroxyoctahydro-12H-5,8-methanofuro[3,2-l][1,3,6,9,11,2,10] pentaoxadiphosphacyclotetradecine-2,10-diolate 2,10-dioxide] | 89%
